Data from patent US10945971B2, “Sphingosine kinase type 1 inhibitors and uses thereof” (Enzo Therapeutics, Inc., priority 2008, dated 2021).

Key:
ERK1/2 [1] = test: Western blotting of pERK1/2, GBM6 cells; type: cell-based, human
Procedure: (§1) Cells were scraped in buffer containing 20 mM Tris-HCl, pH 7.5, 50 mM NaCl, 50 mM NaF, 30 mM Na4P2O7, 20 mM 2-glycerophosphate, 1 mM Na3VO4, 5 mM EDTA, 2 mM EGTA, 0.5% SDS and protease inhibitor cocktail (1:200 dilution) and probe-sonicated. Equal amounts of protein determined with bicinchoninic acid (Pierce, Rockford, Ill.), were resolved by SDS-PAGE and transferred to nitrocellulose membranes. Blots were blocked with 5% non-fat dry milk in Tris-buffered saline containing 0.1% […] (TBST) for 1 h at room temperature, and then incubated with primary antibodies (1:3,000 in 1% BSA) overnight, followed by the appropriate HRP-conjugated secondary antibodies (1:40,000 in 1% BSA). Immunocomplexes were visualized by enhanced chemiluminescence (Pierce).

EGFR, Gab1 = test: EGF-induced tyrosine phosphorylation of EGFR and Gab1; type: cell-based
Procedure: as §1

LN229 xenograft tumors = test: Subcutaneous LN229 xenograft tumors in nu/nu mice; type: in vivo; conditions: 10 mg/kg i.p. every other day
Procedure: Adult male NCI nu/nu mice were purchased from NCI (Frederick, Md.). All animal studies were conducted in the Animal Research Core Facility at VCU School of Medicine in accordance with the institutional guidelines. LN229 cells (1×10^6) were injected in the flanks (4 sites per mouse). Palpable tumors appeared in about one week. Five days later, when tumors reached 3-4 mm in diameter, mice were randomly separated into 2 groups and injected i.p. with saline or SK1-I (10 mg/kg) every other day. Tumor measurements were made with calipers, and tumor volume was calculated using the formula: (π×[length in millimeters]×[width in millimeters]2)/6. At the end of the experiment, the animals were euthanized and the tumors removed, fixed in formalin and embedded in paraffin, or frozen in liquid nitrogen.
Paraffin sections were dewaxed, rehydrated, incubated with proteinase K before permeabilization, and then stained with hematoxylin-eosin. Frozen sections were dried, fixed in formalin, and stained with antibodies against mouse CD-31 (BD Pharmingen, San Jose, Calif.), or rabbit antibodies against phospho-Akt (Ser473) (Cell Signaling) followed by immunohistochemistry with Alexa-488-conjugated species-specific secondary antibodies. Cryosections were air dried, permeabilized with 0.5% Triton X-100, and stained with a fluorescein TUNEL labeling kit (Roche Applied Sciences, Indianapolis, Ind.) followed by counterstaining with Hoechst. Sections were also stained with goat anti-human VEGF affinity-purified antibody (R&D), visualized with anti-goat horseradish peroxidase-diaminobenzidene staining kit (R&D) and counterstained with hematoxylin.

[2] = U.S. Ser. No. 12/387,228; cited from earlier work
LN229 cells [3] = test: Boyden chamber chemotaxis, LN229 cells; type: cell-based, human
Procedure: Boyden chamber invasion assays were carried out essentially as described (Shida et al. Cancer Res 68:6569-6577, 2008).

AML xenograft tumors = conditions: U.S. Ser. No. 12/387,228; cited from earlier work
LN229 cells [4] = test: Apoptosis of LN229 cells (PARP cleavage, nuclear condensation, TUNEL); type: cell-based, human
Procedure: Cells were grown on 3-aminopropyl-triethoxysilane-treated 15 mm glass cover slips in 24 well plates. Following treatments, cells were washed with PBS, fixed with 3% paraformaldehyde for 10 min at room temperature, and blocked in TBST buffer containing 1% BSA. After washing, cells were incubated in the same buffer containing Alexa-conjugated phalloidin for 30 min, followed by 15 min incubation in 10 μg/ml of Hoechst 33342. For TUNEL assays, fixed cells were permeabilized with 0.5% TX-100 for 30 min, washed and incubated in TdT buffer supplemented with 250 μM CoCl2, 20 units TdT (NEB, Ipswich, Mass.) and 1 nM fluorescein-12-dUTP (Roche) for 1 h at 37° C. […]
Cells were plated at 10,000 cells/well in 48-well plates and allowed to attach for 24 h. Cell proliferation was measured at the indicated times with WST-1 and absorbance was measured in a plate reader at 450 nm with background subtraction at 630 nm. Cell death was detected by trypan blue exclusion assays in which the percent of blue dye incorporating cells were determined using a light microscope and a hemacytometer as described (Yacoub et al. Mol Cancer Ther 7:314-329, 2008). Apoptotic cell death was measured by staining cell nuclei with the Hoechst dye bisbenzimide and apoptotic cells were identified by condensed, fragmented nuclear regions as described previously (Sankala et al. Cancer Res 67:10466-10474, 2007). […]

U373 cells = test: Cell proliferation (WST-1), U373 cells; type: cell-based, human
Procedure: U373-MG and LN229 human glioblastoma cells (ATTC, Manassas, Va.) were cultured in DMEM supplemented with 5% FCS. Primary human non-established glioblastoma GBM6 cells were kindly provided by Dr. C. David James and were passaged as tumors in nude mice and subcultured for 1 week following isolation from tumors in media containing 2% FCS to prevent growth of contaminating rodent fibroblasts and then cultured in 5% FCS as described (Yacoub et al., Mol Cancer Ther 7:314-329, 2008). LN229 cells were transfected with H2B-EGFP plasmid and stable colonies were isolated following selection with 1 mg/ml of G418. LN229-H2B-EGFP cells were passaged as tumors as described above.
Cells were plated at 10,000 cells/well in 48-well plates and allowed to attach for 24 h. Cell proliferation was measured at the indicated times with WST-1 and absorbance was measured in a plate reader at 450 nm with background subtraction at 630 nm. Cell death was detected by trypan blue exclusion assays in which the percent of blue dye incorporating cells were determined using a light microscope and a hemacytometer as described (Yacoub et al. Mol Cancer Ther 7:314-329, 2008). Apoptotic cell death was measured by staining cell nuclei with the Hoechst dye bisbenzimide and apoptotic cells were identified by condensed, fragmented nuclear regions as described previously (Sankala et al. Cancer Res 67:10466-10474, 2007). A minimum of 300 cells was scored.

[5] = Metabolism of SK1-I in cells by LC-ESI-MS/MS; type: in vitro ADME
Text: Lipids were extracted and phosphorylated and unphosphorylated sphingoid bases, individual ceramide acyl chain species, as well as SK1-I and its metabolites were quantified by liquid chromatography, electrospray ionization-tandem mass spectrometry (LC-ESI-MS/MS) as described previously (Merrill et al. Methods 36:207-224, 2005).

ERK1/2 [6] = test: Western blotting of ERK1/2 activation, U373 cells; type: cell-based, human
Procedure: as §1

Compound: CCCCCc1ccc(/C=C/[C@H](O)[C@@H](CO)NC)cc1 [SK1-I, (2R,3S,4E)-N-methyl-5-(4′-pentylphenyl)-2-aminopent-4-ene-1,3-diol]
- pERK1/2 levels (ERK1/2 [1]): without affecting
- EGF-induced tyrosine phosphorylation of EGFR or of Gab1 (EGFR, Gab1): did not affect
- TUNEL positive apoptotic tumor cells (LN229 xenograft tumors): increased numbers
- VEGF expression in tumors (LN229 xenograft tumors): greatly reduced
- blood vessel density (CD31 staining) (LN229 xenograft tumors): reductions
- phosphorylated Akt immunostaining in tumors (LN229 xenograft tumors): markedly decreased
- vascularization in tumors (hematoxilin and eosin) (LN229 xenograft tumors): decreased vascularization
- reduction of tumor weight (LN229 xenograft tumors; after 43 days, vs vehicle): ~4 fold
- tumor volume (LN229 xenograft tumors; vs control, single factor ANOVA): significantly smaller tumors
- water solubility [2]: water-soluble
- chemotaxis toward lysophosphatidic acid (LPA) (LN229 cells [3]): drastically inhibited
- chemotaxis toward serum and EGF (LN229 cells [3]): significantly inhibited
- tumor growth (AML xenograft tumors): inhibited growth
- apoptosis (PARP cleavage, fragmented and condensed nuclei, TUNEL) (LN229 cells [4]): induced apoptosis
- cell growth (U373 cells; U373, 10 μM, absence of serum): strongly inhibited growth
- cell numbers (U373 cells; U373, 10 μM, presence of serum, within 2-4 days): severe reductions in cell numbers
- concentration at which a significant growth inhibitory effect was observed (U373 cells; U373 cells): 3 µM
- other metabolites ([5]; after 24 h): no other metabolites were detected
- phosphorylation of the compound ([5]; in contrast to FTY720): not readily phosphorylated
- EGF- and serum-induced ERK1/2 activation (ERK1/2 [6]): did not reduce
